According to article PMC13022235 (Nature Communications, 2026):
Residue numbers refer to the chain shown, from its start. “Also recorded” adds a separate entry of the source.

Key:
[1] = test system: chronic constriction injury (CCI) mice; assay: CCI model, cold allodynia; type: in vivo, mouse; details: for reduction of cold allodynia vs vehicle: acetone
male C57BL/6 J mice = assay: Conditioned place preference; type: in vivo, mouse
hGlyT2^W215F [2] = target: T1, hGlyT2^W215F (Homo sapiens, UniProt Q9Y345, W215F); type: cell-based
T1 sequence (Q9Y345 1-797 W215F): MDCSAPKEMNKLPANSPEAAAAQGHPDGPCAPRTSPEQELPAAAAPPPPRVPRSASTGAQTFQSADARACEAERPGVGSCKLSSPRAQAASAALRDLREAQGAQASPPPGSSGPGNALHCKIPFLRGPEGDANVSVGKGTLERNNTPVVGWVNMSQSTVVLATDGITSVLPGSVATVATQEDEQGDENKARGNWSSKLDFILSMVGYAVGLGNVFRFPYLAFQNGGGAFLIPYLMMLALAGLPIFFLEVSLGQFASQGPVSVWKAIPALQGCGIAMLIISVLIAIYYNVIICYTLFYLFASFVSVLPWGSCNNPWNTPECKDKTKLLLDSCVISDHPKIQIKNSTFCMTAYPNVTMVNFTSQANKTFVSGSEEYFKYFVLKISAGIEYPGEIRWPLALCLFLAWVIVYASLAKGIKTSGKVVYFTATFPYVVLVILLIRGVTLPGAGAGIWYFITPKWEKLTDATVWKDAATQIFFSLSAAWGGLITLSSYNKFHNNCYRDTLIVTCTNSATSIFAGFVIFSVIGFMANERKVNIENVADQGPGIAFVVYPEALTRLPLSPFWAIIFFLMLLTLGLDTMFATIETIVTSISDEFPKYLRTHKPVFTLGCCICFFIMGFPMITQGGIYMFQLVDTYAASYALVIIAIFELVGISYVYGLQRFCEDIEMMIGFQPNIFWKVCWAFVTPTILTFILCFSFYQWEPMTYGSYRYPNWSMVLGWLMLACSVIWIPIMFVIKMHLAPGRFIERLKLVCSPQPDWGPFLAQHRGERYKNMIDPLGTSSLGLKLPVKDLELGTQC

hGlyT2^D633E [3] = target: T2, hGlyT2^D633E (Homo sapiens, UniProt Q9Y345, D633E); type: cell-based; details: D633E mutation
T2 sequence (Q9Y345 1-797 D633E): T1 sequence (Q9Y345 1-797 W215F) with F215W, D633E

hGlyT2^WT [4] = target: T3, hGlyT2^WT (Homo sapiens, UniProt Q9Y345); assay: Reversibility from inhibition; type: cell-based
T3 sequence (Q9Y345 1-797): T1 sequence (Q9Y345 1-797 W215F) with F215W

hGlyT2^W215F [5] = target: T1, hGlyT2^W215F; assay: Reversibility from inhibition; type: cell-based
mice [6] = details: cited from earlier work
hGlyT1^WT = target: T4, hGlyT1^WT (Homo sapiens, UniProt P48067); assay: Two-electrode voltage clamp, GlyT1 selectivity test in oocytes; type: cell-based; details: 10 µM
T4 sequence (P48067 1-706): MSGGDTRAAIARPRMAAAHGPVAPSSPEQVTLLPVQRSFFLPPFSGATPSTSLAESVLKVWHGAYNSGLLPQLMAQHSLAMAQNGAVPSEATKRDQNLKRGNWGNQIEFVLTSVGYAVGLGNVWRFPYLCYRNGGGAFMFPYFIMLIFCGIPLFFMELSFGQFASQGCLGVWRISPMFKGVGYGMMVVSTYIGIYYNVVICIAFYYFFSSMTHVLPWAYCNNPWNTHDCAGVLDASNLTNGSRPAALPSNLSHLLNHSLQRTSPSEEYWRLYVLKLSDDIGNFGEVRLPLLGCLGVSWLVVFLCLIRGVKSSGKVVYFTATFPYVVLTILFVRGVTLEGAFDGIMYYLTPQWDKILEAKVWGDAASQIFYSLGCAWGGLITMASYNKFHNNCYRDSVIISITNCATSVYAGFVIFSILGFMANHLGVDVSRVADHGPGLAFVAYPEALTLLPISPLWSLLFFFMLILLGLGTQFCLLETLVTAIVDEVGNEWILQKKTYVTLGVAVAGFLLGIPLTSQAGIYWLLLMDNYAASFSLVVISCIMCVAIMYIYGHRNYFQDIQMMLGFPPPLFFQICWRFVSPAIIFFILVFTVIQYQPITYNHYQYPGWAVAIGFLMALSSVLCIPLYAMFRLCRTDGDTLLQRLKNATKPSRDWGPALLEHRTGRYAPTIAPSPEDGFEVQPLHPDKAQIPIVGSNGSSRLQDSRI

hGlyT2^WT [7] = target: T3, hGlyT2^WT; type: cell-based; details: glycine dose-responses with RPI-GLYT2-82
hGlyT2^D633E [8] = target: T2, hGlyT2^D633E; assay: Reversibility from inhibition; type: cell-based; details: GlyT2^D633E
[9] = PK Study 2: in-life plasma and CNS drug exposure after 50 mg/kg i.p.; type: in vivo, male C57BL/6 mice; details: 30 min
[10] = test system: chronic constriction injury (CCI) mice; assay: CCI model, mechanical allodynia; type: in vivo, mouse
[11] = test system: partial sciatic nerve ligation (PSNL) mice; assay: PSNL model, mechanical allodynia; type: in vivo, mouse; details: 50 mg/kg i.p.
naïve mice = assay: Accelerating rotarod, motor coordination; type: in vivo, mouse
mice [12] = assay: Side effect scoring; type: in vivo, mouse; details: 250 mg/kg i.p.
naïve, uninjured mice = assay: Whole-body plethysmography; type: in vivo, mouse
hDAT = hDAT (Homo sapiens, UniProt Q01959); assay: Cerep binding assay, displacement of 3H-BTCP; details: 10 μM
Sequence of hDAT (Q01959 whole entry): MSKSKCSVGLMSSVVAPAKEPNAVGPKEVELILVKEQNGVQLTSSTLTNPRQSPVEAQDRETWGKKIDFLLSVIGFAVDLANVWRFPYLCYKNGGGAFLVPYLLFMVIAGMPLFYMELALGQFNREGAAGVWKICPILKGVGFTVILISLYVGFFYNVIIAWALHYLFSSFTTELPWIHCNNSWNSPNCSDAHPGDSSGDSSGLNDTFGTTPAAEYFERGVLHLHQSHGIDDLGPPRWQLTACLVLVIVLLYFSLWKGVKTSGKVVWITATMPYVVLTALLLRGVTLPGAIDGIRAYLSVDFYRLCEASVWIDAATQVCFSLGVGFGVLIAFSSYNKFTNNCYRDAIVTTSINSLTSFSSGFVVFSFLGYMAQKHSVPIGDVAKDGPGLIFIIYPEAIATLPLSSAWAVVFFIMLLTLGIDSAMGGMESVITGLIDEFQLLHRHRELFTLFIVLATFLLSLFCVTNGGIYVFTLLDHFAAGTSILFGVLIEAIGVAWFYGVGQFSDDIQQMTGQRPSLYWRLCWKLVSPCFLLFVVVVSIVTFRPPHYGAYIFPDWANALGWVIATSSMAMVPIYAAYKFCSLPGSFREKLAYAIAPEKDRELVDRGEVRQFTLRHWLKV

hNET = hNET (Homo sapiens, UniProt P23975); assay: Cerep binding assay, displacement of 3H-nisoxetine; details: 10 μM
Sequence of hNET (P23975 whole entry): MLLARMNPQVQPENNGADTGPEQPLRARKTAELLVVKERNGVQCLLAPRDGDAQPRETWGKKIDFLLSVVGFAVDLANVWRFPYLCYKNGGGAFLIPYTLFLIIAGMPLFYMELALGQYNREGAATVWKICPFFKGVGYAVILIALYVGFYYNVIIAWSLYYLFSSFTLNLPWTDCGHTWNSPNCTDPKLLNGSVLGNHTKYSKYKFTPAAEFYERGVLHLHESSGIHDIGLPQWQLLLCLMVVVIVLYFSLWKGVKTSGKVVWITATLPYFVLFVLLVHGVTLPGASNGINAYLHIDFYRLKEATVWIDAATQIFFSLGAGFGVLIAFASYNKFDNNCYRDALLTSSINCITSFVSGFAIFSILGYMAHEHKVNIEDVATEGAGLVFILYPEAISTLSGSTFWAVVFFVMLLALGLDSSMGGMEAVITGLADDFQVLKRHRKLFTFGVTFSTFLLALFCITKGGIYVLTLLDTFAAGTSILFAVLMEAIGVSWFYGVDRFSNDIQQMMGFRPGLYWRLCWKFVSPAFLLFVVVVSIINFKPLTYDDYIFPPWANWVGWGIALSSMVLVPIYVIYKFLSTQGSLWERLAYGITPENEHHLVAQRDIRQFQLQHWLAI

GlyT2 = details: read-out: IC50 for GlyT2; cited from earlier work

NCC1(CC(=O)O)CCCCC1 [Gabapentin, reference compound]
reduction of cold allodynia vs vehicle ([1]; gabapentin 100 mg/kg): significant at 1-6 hours

CN1CC[C@]23c4c5ccc(O)c4O[C@H]2[C@@H](O)C=C[C@H]3[C@H]1C5 [Morphine, reference compound]
conditioned place preference (male C57BL/6 J mice; morphine 10 mg/kg i.p.): significant increase in preference for the paired chamber

COc1cc(C(=O)NCC2(N(C)C)CCCC2)cc(OC)c1OCc1ccccc1 [ORG25543, 4-(benzyloxy)-N-{[1-(dimethylamino)cyclopentyl]methyl}−3,5-dimethoxybenzamide]
decrease in potency of inhibition vs WT (hGlyT2^W215F [2]; W215F mutation): ~ three-fold | decrease in potency of inhibition vs WT (hGlyT2^D633E [3]): ~ 14 fold | reversibility of inhibition (hGlyT2^WT [4]; hGlyT2, washout 30 min): prolonged inhibitory effects with minimal restoration of glycine-induced currents | currents restored, % of pre-inhibitor levels (hGlyT2^WT [4]; hGlyT2^WT, 30 minutes washout): 12.5% | effect of mutation on washout (hGlyT2^W215F [5]; hGlyT2^W215F): significantly increased the rate of ORG25543 washout | mechanical allodynia (mice [6]; 50 mg/kg): reversed mechanical allodynia | side effects (mice [6]; 50 mg/kg): near-complete loss of rotarod performance, seizures and in one case, lethality | effects on inflammatory and acute nociceptive pain thresholds (mice [6]): no effects on inflammatory and acute nociceptive pain thresholds

CN(C)C1(CNC(=O)c2ccc3c(c2)CCN3C(=O)c2ccccc2)CCOCC1 [RPI-GLYT2-82, 1-benzoyl-N-((4-(dimethylamino)tetrahydro-2H-pyran-4-yl)methyl)indoline-5-carboxamide]
IC50 (hGlyT2^W215F [2]): > 30000 nM | decrease in potency of inhibition vs WT (hGlyT2^D633E [3]): > 18 fold | effect on GlyT1 (hGlyT1^WT): minimal effect on GlyT1 | mechanism of inhibition (hGlyT2^WT [7]): non-competitive inhibitor | washout (hGlyT2^W215F [5]; GlyT2^W215F): almost immediate | washout (hGlyT2^D633E [8]): almost immediate | Cu,b, calculated unbound concentration in brain [9]: 597.89 nM | efficacy against mechanical allodynia vs vehicle ([10]; 50 mg/kg i.p.): significant at 2 and 3 hours post-injection compared to vehicle | efficacy against mechanical allodynia vs vehicle ([10]; 100 mg/kg i.p.): showed a similar trend at 2 and 3 hours | anti-allodynia, time of maximum efficacy ([10]; von Frey, 50 and 100 mg/kg i.p.): maximum efficacy between 90 min and 3 hours post-administration | time of peak anti-allodynia effects, cold allodynia ([1]; 50 and 100 mg/kg i.p.): ≤ 2 h | reduction of cold allodynia vs vehicle ([1]; 50 and 100 mg/kg i.p.): significantly reduced cold allodynia between 0.5 and 6-hours postinjection compared to vehicle | reduction of mechanical allodynia vs vehicle [11]: significant at 90 minutes and 2-hours post-injection compared to vehicle | neuromotor effects / muscle weakness (naïve mice; 50 mg/kg, rotarod, grip strength, sedation): No deficits were observed; also recorded: not associated with adverse neuromotor effects or muscle weakness | initial reduction in baseline rotarod performance (naïve mice; 250 mg/kg i.p.): 61% | sedation (mice [12]): transient sedation, which was most apparent in the first 15–30 minutes and fully recovered by 90 minutes | respiration (naïve, uninjured mice; 50 mg/kg): did not change respiration frequency, minute volume (MVb), or tidal volume (TVb) | respiration (naïve, uninjured mice; 250 mg/kg i.p.): transient changes in respiratory frequency and MVb in the first hour, and TVb in the first 30 min | conditioned place preference (male C57BL/6 J mice; 50 and 150 mg/kg i.p.): no significant preference | displacement of 3H-BTCP from hDAT / inhibition (hDAT): ~ 20% | displacement of 3H-nisoxetine from hNET / inhibition (hNET): < 5%

CCCCCCCC/C=C\CCCCCCCC(=O)N[C@H](CCCCN)C(=O)O [oleoyl-D-lysine]
effects on inflammatory and acute nociceptive pain thresholds (mice [6]): no effects on inflammatory and acute nociceptive pain thresholds

CCCCOc1c(OC)cc(C(=O)NCC2(N(C)C)CCOCC2)cc1OC [opiranserin]
IC50 (GlyT2): 860 nM
